Experimental data: patent US20200216439A1, “HETERO-1,5,6,7-TETRAHYDRO-4H-INDOL-4-ONES” (BAYER PHARMA AKTIENGESELLSCHAFT, priority 2015, published 2020)

Target: T1, catalytic domain of human Bub1 (amino acids 704-1085) (Homo sapiens, UniProt O43683)
T1 construct: catalytic domain of human Bub1 (amino acids 704-1085); His6 (N); made in house; host or cells: Hi5 insect cells
Experiment: Bub1 kinase assay (TR-FRET)
Format: biochemical
Conditions: TR-FRET; ATP 10 μM, peptide substrate 1 μM; 60 min at 22° C.; average or median if tested more than once; read-out: Inhibition of Bub1 kinase IC50
Outline: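 Human Bub1 catalytic domain (704-1085, His6-tagged, Hi5-expressed, ~200 ng/mL) preincubated with compound 15 min at 22 °C, then reacted 60 min at 22 °C with 10 μM ATP and 1 μM biotinylated peptide substrate, pH 7.5. EDTA stop; TR-FRET 665/620 ratio; IC50 from 4-parameter fit, 11 concentrations in duplicate.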

T1 sequence (O43683 704-1085): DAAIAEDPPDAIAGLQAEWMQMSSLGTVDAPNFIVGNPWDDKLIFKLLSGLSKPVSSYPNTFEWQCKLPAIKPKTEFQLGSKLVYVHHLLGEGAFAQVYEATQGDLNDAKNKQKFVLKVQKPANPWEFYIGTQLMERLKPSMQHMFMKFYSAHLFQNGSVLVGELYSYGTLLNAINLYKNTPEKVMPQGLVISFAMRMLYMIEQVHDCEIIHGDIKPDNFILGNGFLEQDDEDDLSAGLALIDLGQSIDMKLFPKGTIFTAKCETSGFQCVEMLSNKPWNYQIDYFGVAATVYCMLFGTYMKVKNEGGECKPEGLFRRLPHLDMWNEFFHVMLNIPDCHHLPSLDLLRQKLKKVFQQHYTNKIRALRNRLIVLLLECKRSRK

IC50	Structure (SMILES)
12 nM	CNC(=O)N1CC(=O)c2c([nH]c(-c3ccncc3OCC3CC3)c2Nc2ccccc2)C1 [Example 251, 2-[3-(Cyclopropylmethoxy)pyridin-4-yl]-N-methyl-4-oxo-3-(phenylamino)-1,4,5,7-tetrahydro-6H-pyrrolo[2,3-c]pyridine-6-carboxamide]
4 nM	CNC(=O)N1CC(=O)c2c([nH]c(-c3ccncc3)c2Nc2ccccc2)C1 [Example 81, N-Methyl-4-oxo-3-(phenylamino)-2-(pyridin-4-yl)-1,4,5,7-tetrahydro-6H-pyrrolo[2,3-c]pyridine-6-carboxamide]
7 nM	O=C1CN(S(=O)(=O)c2cnc[nH]2)Cc2[nH]c(-c3ccncc3)c(Nc3ccccc3)c21 [Example 72, 6-(1H-Imidazol-5-ylsulfonyl)-3-(phenylamino)-2-(pyridin-4-yl)-1,5,6,7-tetrahydro-4H-pyrrolo[2,3-c]pyridin-4-one]
9 nM	COC(=O)N1CC(=O)c2c([nH]c(-c3ccncc3OCC3CC3)c2Nc2ccccc2)C1 [Example 250, Methyl 2-[3-(cyclopropylmethoxy)pyridin-4-yl]-4-oxo-3-(phenylamino)-1,4,5,7-tetrahydro-6H-pyrrolo[2,3-c]pyridine-6-carboxylate]
222 nM	O=C1CNCc2[nH]c(-c3ccncc3OCC(F)F)c(Nc3ccccc3)c21 [Example 224, 3-anilino-2-[3-(2,2-difluoroethoxy)pyridin-4-yl]-1,5,6,7-tetrahydro-4H-pyrrolo[2,3-c]pyridin-4-one]
6 nM	COC(=O)N1CC(=O)c2c([nH]c(-c3ccncc3)c2Nc2ccccc2)C1 [Example 18, Methyl 4-oxo-3-(phenylamino)-2-(pyridin-4-yl)-1,4,5,7-tetrahydro-6H-pyrrolo[2,3-c]pyridine-6-carboxylate]
10 nM	COc1ccc(C(=O)Nc2cc(-c3[nH]c4c(c3Nc3ccccc3)C(=O)CN(C(=O)N3CCCC3)C4)ccn2)cc1F [Example 293, 3-Fluoro-4-methoxy-N-4-[4-oxo-3-(phenylamino)-6-(pyrrolidin-1-ylcarbonyl)-4,5,6,7-tetrahydro-1H-pyrrolo[2,3-c]pyridin-2-yl]pyridin-2-ylbenzamide]
254 nM	CCNC(=O)N1CC(=O)c2c([nH]c(-c3ccnc(C)n3)c2Nc2ccccc2)C1 [Example 25, N-Ethyl-2-(2-methylpyrimidin-4-yl)-4-oxo-3-(phenylamino)-1,4,5,7-tetrahydro-6H-pyrrolo[2,3-c]pyridine-6-carboxamide]
22 nM	CC(C)OC(=O)N1CC(=O)c2c([nH]c(-c3ccnc(NC(=O)C4(F)CC4)c3)c2Nc2ccccc2)C1 [Example 159, Isopropyl 3-anilino-2-{2-([(1-fluorocyclopropyl)carbonyl]amino}pyridin-4-yl)-4-oxo-1,4,5,7-tetrahydro-6H-pyrrolo[2,3-c]pyridine-6-carboxylate]
77 nM	CCNC(=O)Nc1cc(-c2[nH]c3c(c2Nc2ccccc2)C(=O)COC3)ccn1 [Example 54, 1-Ethyl-3-{4-[4-oxo-3-(phenylamino)-1,4,5,7-tetrahydropyrano[3,4-b]pyrrol-2-yl]pyridin-2-yl}urea]
93 nM	CSCC(=O)Nc1cc(-c2[nH]c3c(c2Nc2ccccc2)C(=O)COC3)ccn1 [Example 46, 2-(Methylsulfanyl)-N-{4-[4-oxo-3-(phenylamino)-1,4,5,7-tetrahydropyrano[3,4-b]pyrrol-2-yl]pyridin-2-yl}acetamide]
4 nM	CCN(CC)C(=O)N1CC(=O)c2c([nH]c(-c3ccnc(NC(=O)[C@@H]4C[C@@H]4F)c3)c2Nc2ccccc2)C1 [Example 217, N,N-Diethyl-2-[2-([(1S,2S)-2-fluorocyclopropyl]carbonylamino)pyridin-4-yl]-4-oxo-3-(phenylamino)-1,4,5,7-tetrahydro-6H-pyrrolo[2,3-c]pyridine-6-carboxamide]
4 nM	CC(=O)Nc1cc(-c2[nH]c3c(c2Nc2ccc(F)cc2)C(=O)CN(S(C)(=O)=O)C3)ccn1 [Example 311, N-(4-(3-[(4-Fluorophenyl)amino]-6-(methylsulfonyl)-4-oxo-4,5,6,7-tetrahydro-1H-pyrrolo[2,3-c]pyridin-2-yl)pyridin-2-yl)acetamide]
6 nM	CC(C)(C)OC(=O)N1CC(=O)c2c([nH]c(-c3ccnc(NC(=O)c4cncs4)c3)c2Nc2ccccc2)C1 [Example 122, tert-Butyl 4-oxo-3-(phenylamino)-2-{2-[(1,3-thiazol-5-ylcarbonyl)amino]pyridin-4-yl}-1,4,5,7-tetrahydro-6H-pyrrolo[2,3-c]pyridine-6-carboxylate]
14 nM	CC(=O)Nc1cc(-c2[nH]c3c(c2Nc2ccccc2)C(=O)CN(C(=O)OC(C)C)C3)ccn1 [Example 185, Isopropyl 2-(2-acetamidopyridin-4-yl)-3-anilino-4-oxo-1,4,5,7-tetrahydro-6H-pyrrolo[2,3-c]pyridine-6-carboxylate]
404 nM	COc1ccc(C(=O)Nc2cc(-c3c(Nc4ccccc4)c4c(n3C)CN(C(C)=O)CC4=O)ccn2)cc1F [Example 288, N-4-[6-Acetyl-1-methyl-4-oxo-3-(phenylamino)-4,5,6,7-tetrahydro-1H-pyrrolo[2,3-c]pyridin-2-yl]pyridin-2-yl-3-fluoro-4-methoxybenzamide]
5 nM	CS(=O)(=O)N1CC(=O)c2c([nH]c(-c3ccnc(NC(=O)C4(F)CC4)c3)c2Nc2ccccc2)C1 [Example 150, N-{4-[3-Anilino-6(methylsulfonyl)-4-4-oxo-4,5,6,7-tetrahydro-1H-pyrrolo[2,3-c]pyridin-2-yl]pyridin-2-yl}-1-fluorocyclopropanecarboxamide]
499 nM	Cc1ccc(Nc2c(-c3ccnc(N)c3)[nH]c3c2C(=O)CN(C(=O)OC(C)(C)C)C3)cc1 [Example 294, tert-butyl 2-(2-Aminopyridin-4-yl)-3-[(4-methylphenyl)amino]-4-oxo-1,4,5,7-tetrahydro-6H-pyrrolo[2,3-c]pyridine-6-carboxylate]
7 nM	CCOC(=O)N1CC(=O)c2c([nH]c(-c3ccncc3)c2Nc2ccccc2)C1 [Example 76, Ethyl 4-oxo-3-(phenylamino)-2-(pyridin-4-yl)-1,4,5,7-tetrahydro-6H-pyrrolo[2,3-c]pyridine-6-carboxylate]
1050 nM	COc1ccc(C(=O)Nc2cc(-c3c(Nc4ccccc4)c4c(n3C)CN(C(=O)OC(C)(C)C)CC4=O)ccn2)cc1F [Example 286, tert-Butyl 2-2-[(3-fluoro-4-methoxybenzoyl)amino]pyridin-4-yl-1-methyl-4-oxo-3-(phenylamino)-1,4,5,7-tetrahydro-6H-pyrrolo[2,3-c]pyridine-6-carboxylate]
12 nM	COc1cnccc1-c1[nH]c2c(c1Nc1ccccc1)C(=O)CN(C(C)=O)C2 [Example 105, 6-Acetyl-2-(3-methoxypyridin-4-yl)-3-(phenylamino)-1,5,6,7-tetrahydro-4H-pyrrolo[2,3-c]pyridin-4-one]
55 nM	O=C1COCc2[nH]c(-c3ccnc(NC(=O)C4CC4)c3)c(Nc3ccccc3)c21 [Example 35, N-{4-[4-Oxo-3-(phenylamino)-1,4,5,7-tetrahydropyrano[3,4-b]pyrrol-2-yl]pyridin-2-yl}cyclopropanecarboxamide]
3 nM	CC(=O)Nc1cc(-c2[nH]c3c(c2Nc2ccccc2)C(=O)CN(C(=O)CCS(C)(=O)=O)C3)ccn1 [Example 210, N-(4-6-[3-(Methylsulfonyl)propanoyl]-4-oxo-3-(phenylamino)-4,5,6,7-tetrahydro-1H-pyrrolo[2,3-c]pyridin-2-ylpyridin-2-yl)acetamide]
104 nM	CC(C)(C)OC(=O)N1CC(=O)c2c([nH]c(-c3ccncc3OCC(F)(F)F)c2Nc2ccccc2)C1 [Example 221, tert-Butyl 3-anilino-4-oxo-2-[3-(2,2,2-trifluoroethoxy)pyridin-4-yl]-1,4,5,7-tetrahydro-6H-pyrrolo[2,3-c]pyridine-6-carboxylate]
37 nM	COc1ccc(C(=O)Nc2cc(-c3[nH]c4c(c3Nc3ccccc3)C(=O)CN(C(=O)OC(C)(C)C)C4)ccn2)cc1 [Example 270, tert-Butyl 2-2-[(4-methoxybenzoyl)amino]pyridin-4-yl-4-oxo-3-(phenylamino)-1,4,5,7-tetrahydro-6H-pyrrolo[2,3-c]pyridine-6-carboxylate]
26 nM	CC(=O)Nc1cc(-c2[nH]c3c(c2Nc2ccccc2)C(=O)CN(C(=O)c2ccncc2)C3)ccn1 [Example 116, N-{4-[4-Oxo-3-(phenylamino)-6-(pyridin-4-ylcarbonyl)-4,5,6,7-tetrahydro-1H-pyrrolo[2,3-c]pyridin-2-yl]pyridin-2-yl}acetamide]
3 nM	CCCN(C)C(=O)N1CC(=O)c2c([nH]c(-c3ccnc(NC(C)=O)c3)c2Nc2ccccc2)C1 [Example 187, 2-(2-Acetamidopyridin-4-yl)-3-anilino-N-methyl-4-oxo-N-propyl-1,4,5,7-tetrahydro-6H-pyrrolo[2,3-c]pyridine-6-carboxamide]
8 nM	CC(C)(C)OC(=O)N1CC(=O)c2c([nH]c(-c3ccnc(NC(=O)[C@H]4C[C@H]4F)c3)c2Nc2ccccc2)C1 [Example 128, tert-Butyl 3-anilino-2-[2-({[(1R,2R)-2-fluorocyclopropyl]carbonyl}amino)pyridin-4-yl]-4-oxo-1,4,5,7-tetrahydro-6H-pyrrolo[2,3-c]pyridine-6-carboxylate]
6 nM	CN(C)CCOc1cnccc1-c1[nH]c2c(c1Nc1ccccc1)C(=O)CN(S(=O)(=O)N(C)C)C2 [Example 279, 2-3-[2-(Dimethylamino)ethoxy]pyridin-4-yl-N,N-dimethyl-4-oxo-3-(phenylamino)-1,4,5,7-tetrahydro-6H-pyrrolo[2,3-c]pyridine-6-sulfonamide]
